The values that follow come from patent US20080233127A1, “IMIDAZOLOPYRIMIDINE ANALOGS AND THEIR USE AS PI3 KINASE AND MTOR INHIBITORS” (Wyeth, priority 2007, published 2008).

The target of one data set is PI3 Kinase. The data set is described as follows: PI3K fluorescence polarization assay. Particulars: 25 μM ATP, diC8-PI(4,5)P2 substrate, 1 hour at 25° C.; read-out: PI3 Kinase Median IC50. The format is biochemical. Background: Fluorescence polarisation rises when a labelled molecule tumbles more slowly, as on binding a larger partner.
Another data set has as its target T1, human TOR (Homo sapiens, UniProt P42345).
T1 construct: FLAG
The experiment in a line: mTOR enzyme assay (DELFIA format, purified FLAG-TOR, His6-S6K substrate). Particulars: 100 μM ATP, 1.25 μM His6-S6K, 2 hours at room temperature; read-out: TOR Kinase Median IC50. Format: biochemical.

Procedure for PI3 Kinase: Nunc 384 well black polypropylene fluorescent plates are used for PI3K assays. Reactions are quenched by the addition of EDTA to a final concentration of 10 mM. Final reaction volumes are 10 μl. […] Reactions are allowed to proceed for one hour at 25° C. After 1 hour, GST-tagged GRP1 (general receptor for phosphoinositides) PH domain fusion protein is added to a final concentration of 100 nM, and BODIPY-TMRI(1,3,4,5)P4 (Echelon) is also added to a final concentration of 5 nM. Final sample volumes are 25 μl with a final DMSO concentration of 0.8%. Assay Plates are read on Perkin-Elmer Envision plate readers with appropriate filters for Tamra [BODIPY-TMRI(1,3,4,5)P4].

`Nc1ncc(-c2nc(N3CCOCC3)c3ncn(C4CCN(Cc5ccccc5)CC4)c3n2)cn1` [Compound 31, 5-[9-(1-benzylpiperidin-4-yl)-6-morpholin-4-yl-9H-purin-2-yl]pyrimidin-2-amine]: the melting point (commonly the temperature, or range, at which the solid turns liquid) lay in the range of 238 to 240 °C. At PI3 Kinase, the IC50 (usually the concentration needed to halve the response being measured) was 43 nM. The IC50 on human TOR is 220 nM.

As to `OCc1cccc(-c2nc(N3CCOCC3)c3ncn(C4CCN(Cc5ccc(F)cc5)CC4)c3n2)c1` [Compound 46, (3-{9-[1-(4-fluorobenzyl)piperidin-4-yl]-6-morpholin-4-yl-9H-purin-2-yl}phenyl)methanol], the half-maximal inhibitory concentration (IC50) at PI3 Kinase came out at 70 nM; at human TOR it was 1700 nM.

`Nc1ccc(-c2nc(N3CCOCC3)c3ncn(C4CCN(Cc5ccccc5)CC4)c3n2)cn1` [Compound 32, 5-[9-(1-benzylpiperidin-4-yl)-6-morpholin-4-yl-9H-purin-2-yl]pyridin-2-amine] showed a melting point of 198 to 200 °C. Besides, the IC50 on PI3 Kinase is 160 nM. Besides, the IC50 at human TOR was 120 nM.

For `OCc1cccc(-c2nc(N3CCOCC3)c3ncn(C4CCN(Cc5cccc(N6CCOCC6)n5)CC4)c3n2)c1` [Compound 72, [3-(6-morpholin-4-yl-9-{1-[(6-morpholin-4-ylpyridin-2-yl)methyl]piperidin-4-yl}-9H-purin-2-yl)phenyl]methanol], the half-maximal inhibitory concentration (IC50) at PI3 Kinase was 99 nM; at human TOR it was 1800 nM.

As to `OCc1cccc(-c2nc(N3CCOCC3)c3ncn(C4CCN(Cc5cccc(F)c5)CC4)c3n2)c1` [Compound 50, (3-{9-[1-(3-fluorobenzyl)piperidin-4-yl]-6-morpholin-4-yl-9H-purin-2-yl}phenyl)methanol], the IC50 at PI3 Kinase is 94 nM; on human TOR, 1400 nM.

Consider `Oc1cccc(-c2nc(N3CCOCC3)c3ncn(CCN4CCCCC4)c3n2)c1` [Compound 85, 3-[6-morpholin-4-yl-9-(2-piperidin-1-ylethyl)-9H-purin-2-yl]phenol], for which the IC50 stood at 163 nM at PI3 Kinase and 9800 nM at human TOR.

Turning to `OCc1cccc(-c2nc(N3CCOCC3)c3ncn(C4CCN(Cc5c[nH]c6ccc(F)cc56)CC4)c3n2)c1` [Compound 73, [3-(9-{1-[(5-fluoro-1H-indol-3-yl)methyl]piperidin-4-yl}-6-morpholin-4-yl-9H-purin-2-yl)phenyl]methanol], the IC50 on PI3 Kinase turned out to be 30 nM; at human TOR, 1300 nM.

As for `OCc1cccc(-c2nc(N3CCOCC3)c3ncn(CCN4CCCCC4)c3n2)c1` [Compound 86, {3-[6-morpholin-4-yl-9-(2-piperidin-1-ylethyl)-9H-purin-2-yl]phenyl}methanol], the half-maximal inhibitory concentration (IC50) turned out to be 91 nM at PI3 Kinase and 13000 nM at human TOR.

As to `Cc1ccc(CN2CCC(n3cnc4c(N5CCOCC5)nc(-c5cncc(O)c5)nc43)CC2)s1` [Compound 37, 5-(9-{1-[(5-methyl-2-thienyl)methyl]piperidin-4-yl}-6-morpholin-4-yl-9H-purin-2-yl)pyridin-3-ol], the concentration for half-maximal inhibition (IC50) at PI3 Kinase was 26 nM; at human TOR, 140 nM.

For the compound `C=CC(=O)n1cnc2c(N3CCOCC3)nc(-c3cccc(O)c3)nc21` [Compound 91, 1-(2-(3-hydroxyphenyl)-6-morpholino-9H-purin-9-yl)prop-2-en-1-one], the figures for the concentration for half-maximal inhibition (IC50) at PI3 Kinase and on human TOR were 43 nM and 73 nM, respectively.

In the case of `OCc1cccc(-c2nc(N3CCOCC3)c3ncn(C4CCN(Cc5ccc[nH]5)CC4)c3n2)c1` [Compound 68, (3-{6-morpholin-4-yl-9-[1-(1H-pyrrol-2-ylmethyl)piperidin-4-yl]-9H-purin-2-yl}phenyl)methanol], the results for the IC50 at PI3 Kinase and at human TOR were 37 nM and 2500 nM, respectively.
